Results as given in PubChem BioAssay AID248 (DTP/NCI, 2004).
“And” between values parts separate entries of the source, which are not always exact repeats. Equal entries are not always repeated. Inconclusive results and toxic doses are left out. No stated cut-off is given here; in the data, active means T/C of 150% or more; inactive means T/C below 125%.

System: L1210 leukemia ip in BDF1 mice, survival T/C
Experiment: NCI In Vivo Anticancer Drug Screen. Data for tumor model L1210 Leukemia (intraperitoneal) in B6D2F1 (BDF1) mice
Details: endpoint: mean survival time, higher = longer survival
Procedure, shortened: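 Ratio derived from survival: compound-dosed mice over vehicle-dosed mice, all bearing a transplantable tumor.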

[1] = dose: 100.0 mg/kg/injection, schedule: Q04DX002 (ip), vehicle: saline with Tween-80
[2] = dose: 200.0 mg/kg/injection, schedule: Q04DX002 (ip), vehicle: saline with Tween-80
[3] = dose: 400.0 mg/kg/injection, schedule: Q04DX002 (ip), vehicle: saline with Tween-80
[4] = dose: 100.0 mg/kg/injection, schedule: Q04DX003 (ip), vehicle: Klucel (hydroxypropylcellulose) (HPC)
[5] = dose: 200.0 mg/kg/injection, schedule: Q04DX003 (ip), vehicle: Klucel (hydroxypropylcellulose) (HPC)
[6] = dose: 100.0 mg/kg/injection, schedule: Q01DX009 (ip), vehicle: saline with Tween-80
[7] = dose: 200.0 mg/kg/injection, schedule: Q01DX009 (ip), vehicle: saline with Tween-80
[8] = dose: 100.0 mg/kg/injection, schedule: Q01DX001 (ip), vehicle: carboxymethylcellulose (CMC)
[9] = dose: 200.0 mg/kg/injection, schedule: Q01DX001 (ip), vehicle: carboxymethylcellulose (CMC)
[10] = dose: 400.0 mg/kg/injection, schedule: Q01DX001 (ip), vehicle: carboxymethylcellulose (CMC)
[11] = dose: 25.0 mg/kg/injection, schedule: Q04DX002 (ip), vehicle: Klucel (hydroxypropylcellulose) (HPC)
[12] = dose: 50.0 mg/kg/injection, schedule: Q04DX002 (ip), vehicle: Klucel (hydroxypropylcellulose) (HPC)
[13] = dose: 100.0 mg/kg/injection, schedule: Q04DX002 (ip), vehicle: Klucel (hydroxypropylcellulose) (HPC)

Measured: T/C

CCC(C)CCC(C)C1CCC2C3CCC4C=C(OC(C)=O)CCC4(C)C3CCC12C (stereo not given)
inactive: [1] 103 % of control | [2] 98 % of control | [3] 98 % of control

O=[N+]([O-])c1ccc(-c2cnc(Br)c3ccccc23)cc1
inactive: dose: 25.0 mg/kg/injection, schedule: Q04DX003 (ip), vehicle: DMSO 96 % of control | dose: 50.0 mg/kg/injection, schedule: Q04DX003 (ip), vehicle: DMSO 93 % of control | dose: 100.0 mg/kg/injection, schedule: Q04DX003 (ip), vehicle: DMSO 93 % of control | dose: 200.0 mg/kg/injection, schedule: Q04DX003 (ip), vehicle: DMSO 93 % of control | dose: 400.0 mg/kg/injection, schedule: Q04DX003 (ip), vehicle: DMSO 93 % of control

c1ccc(N2CCNCC2)cc1
inactive: dose: 5.0 mg/kg/injection, schedule: Q01DX001 (ip), vehicle: saline 98 % of control [middle of 5 runs] | dose: 6.25 mg/kg/injection, schedule: Q01DX001 (ip), vehicle: saline 97 % of control | dose: 6.25 mg/kg/injection, schedule: Q04DX003 (ip), vehicle: saline 99 % of control | dose: 10.0 mg/kg/injection, schedule: Q01DX001 (ip), vehicle: saline 102 % of control [middle of 5 runs] | dose: 12.5 mg/kg/injection, schedule: Q01DX001 (ip), vehicle: saline 92 % of control | dose: 12.5 mg/kg/injection, schedule: Q04DX003 (ip), vehicle: saline 99 % of control | dose: 20.0 mg/kg/injection, schedule: Q01DX001 (ip), vehicle: saline 98 % of control [middle of 5 runs] | dose: 25.0 mg/kg/injection, schedule: Q01DX001 (ip), vehicle: saline 97 % of control | dose: 25.0 mg/kg/injection, schedule: Q04DX003 (ip), vehicle: saline 96 % of control | dose: 40.0 mg/kg/injection, schedule: Q01DX001 (ip), vehicle: saline 104 % of control [middle of 5 runs] | dose: 80.0 mg/kg/injection, schedule: Q01DX001 (ip), vehicle: saline 92 % of control and 98 % of control and 115 % of control | dose: 100.0 mg/kg/injection, schedule: Q01DX001 (ip), vehicle: saline 101 % of control

CN(C)Cc1cc(C23CC4CC(CC(C4)C2)C3)cc(-c2ccccc2)c1O
inactive: dose: 100.0 mg/kg/injection, schedule: Q04DX003 (ip), vehicle: acetone 95 % of control | dose: 200.0 mg/kg/injection, schedule: Q04DX003 (ip), vehicle: acetone 98 % of control | dose: 400.0 mg/kg/injection, schedule: Q04DX003 (ip), vehicle: acetone 90 % of control

Cc1ccc(NC(=O)c2ccccc2)cc1[As]=[As]c1cc(NC(=O)c2ccccc2)ccc1C (stereo not given)
inactive: dose: 1.0 mg/kg/injection, schedule: Q01DX015 (ip), vehicle: carboxymethylcellulose (CMC) 90 % of control | dose: 2.0 mg/kg/injection, schedule: Q01DX015 (ip), vehicle: carboxymethylcellulose (CMC) 95 % of control | dose: 4.0 mg/kg/injection, schedule: Q01DX015 (ip), vehicle: carboxymethylcellulose (CMC) 101 % of control

O=[N+]([O-])c1cc(C(F)(F)F)ccc1/C=C/c1ccccc1Br
inactive: dose: 100.0 mg/kg/injection, schedule: Q04DX003 (ip), vehicle: saline with Tween-80 105 % of control | dose: 200.0 mg/kg/injection, schedule: Q04DX003 (ip), vehicle: saline with Tween-80 97 % of control | dose: 400.0 mg/kg/injection, schedule: Q04DX003 (ip), vehicle: saline with Tween-80 101 % of control

COc1ccc([P+](Cc2ccccc2)(c2ccccc2)c2ccc3ccccc3c2)cc1 (stereo not given)
inactive: dose: 75.0 mg/kg/injection, schedule: Q01DX001 (ip), vehicle: carboxymethylcellulose (CMC) 91 % of control | dose: 150.0 mg/kg/injection, schedule: Q01DX001 (ip), vehicle: carboxymethylcellulose (CMC) 96 % of control

COc1ccc(C(O)C(C)C(O)(C(F)(F)F)C(F)(F)F)cc1 (stereo not given)
inactive: dose: 100.0 mg/kg/injection, schedule: Q01DX001 (ip), vehicle: Klucel (hydroxypropylcellulose) (HPC) 98 % of control | [4] 96 % of control | dose: 200.0 mg/kg/injection, schedule: Q01DX001 (ip), vehicle: Klucel (hydroxypropylcellulose) (HPC) 101 % of control | [5] 98 % of control | dose: 400.0 mg/kg/injection, schedule: Q01DX001 (ip), vehicle: Klucel (hydroxypropylcellulose) (HPC) 111 % of control | dose: 400.0 mg/kg/injection, schedule: Q04DX003 (ip), vehicle: Klucel (hydroxypropylcellulose) (HPC) 93 % of control

NC(N)=N/N=C/c1ccc(C(=O)O)cc1
inactive: dose: 15.0 mg/kg/injection, schedule: Q01DX Z (ip), vehicle: saline 103 % of control | dose: 30.0 mg/kg/injection, schedule: Q01DX Z (ip), vehicle: saline 104 % of control | dose: 60.0 mg/kg/injection, schedule: Q01DX Z (ip), vehicle: saline 106 % of control | dose: 120.0 mg/kg/injection, schedule: Q01DX Z (ip), vehicle: saline 110 % of control | dose: 120.0 mg/kg/injection, schedule: Q01DX Z (oral), vehicle: saline 92 % of control | dose: 240.0 mg/kg/injection, schedule: Q01DX Z (ip), vehicle: saline 87 % of control | dose: 240.0 mg/kg/injection, schedule: Q01DX Z (oral), vehicle: saline 90 % of control | dose: 480.0 mg/kg/injection, schedule: Q01DX Z (oral), vehicle: saline 101 % of control | dose: 960.0 mg/kg/injection, schedule: Q01DX Z (oral), vehicle: saline 92 % of control

CCCC(P(c1ccccc1)c1ccccc1)P(=O)(c1ccccc1)c1ccccc1 (stereo not given)
inactive: [1] 94 % of control | [2] 94 % of control | [3] 94 % of control

COc1ccccc1C(=O)CC(O)(C(F)(F)F)C(F)(F)F
inactive: [6] 105 % of control | [7] 103 % of control | dose: 400.0 mg/kg/injection, schedule: Q01DX009 (ip), vehicle: saline with Tween-80 103 % of control

CC1([N+](=O)[O-])COP(=O)(NCCCN2CCOCC2)OC1 (stereo not given)
inactive: [8] 97 % of control | [9] 97 % of control | [10] 97 % of control

NC1(c2ccccc2)CC1
inactive: [11] 90 % of control | [12] 93 % of control | [13] 95 % of control and 98 % of control

CCN(CC)CCOCCOC(=O)C(CC)(CC)c1cccc2ccccc12
inactive: [11] 93 % of control | [12] 97 % of control | [13] 93 % of control

Cc1ccc(S(=O)(=O)Oc2ccc([N+](=O)[O-])cc2[N+](=O)[O-])cc1
inactive: dose: 50.0 mg/kg/injection, schedule: Q01DX001 (ip), vehicle: carboxymethylcellulose (CMC) 106 % of control | dose: 50.0 mg/kg/injection, schedule: Q01DX009 (ip), vehicle: other 100 % of control | [8] 114 % of control | dose: 100.0 mg/kg/injection, schedule: Q01DX009 (ip), vehicle: other 96 % of control | [4] 118 % of control | [9] 106 % of control | [5] 96 % of control | [10] 106 % of control

COc1ccc(C(=O)/C=C/c2cccc(OC)c2O)cc1
inactive: dose: 75.0 mg/kg/injection, schedule: Q04DX003 (ip), vehicle: saline 101 % of control | dose: 150.0 mg/kg/injection, schedule: Q04DX003 (ip), vehicle: saline 91 % of control | dose: 300.0 mg/kg/injection, schedule: Q04DX003 (ip), vehicle: saline 101 % of control

ClCCCCOCBr
inactive: dose: 50.0 mg/kg/injection, schedule: Q01DX009 (ip), vehicle: saline with Tween-80 97 % of control | [6] 104 % of control | [7] 95 % of control
